Reference: patent US20230135524A1, “ARYL HYDANTOIN HETEROCYCLES AND METHODS OF USE” (The United States of America,as represented by the …, priority 2020, published 2023)
Where two headings read alike, the source gives them in different places. Blank lines part the entries; values can stand above or below the molecule they belong to.

Columns and labels:
Assay type in all cases: cell-based
AR = target: T1, AR (Homo sapiens, UniProt P10275); test: AR transcriptional output, ARE-luciferase assay in HEK 293T cells; settings: for antagonist or inverse agonist activity on AR transcriptional activity (in words): 10 μM, HEK 293T, FIG. 6A; for activity at 10 µM: HEK-293T, read-out: AR antagonist activity (% RLU)
T1 construct: host or cells: HEK 293T
T1 sequence (P10275 1-920): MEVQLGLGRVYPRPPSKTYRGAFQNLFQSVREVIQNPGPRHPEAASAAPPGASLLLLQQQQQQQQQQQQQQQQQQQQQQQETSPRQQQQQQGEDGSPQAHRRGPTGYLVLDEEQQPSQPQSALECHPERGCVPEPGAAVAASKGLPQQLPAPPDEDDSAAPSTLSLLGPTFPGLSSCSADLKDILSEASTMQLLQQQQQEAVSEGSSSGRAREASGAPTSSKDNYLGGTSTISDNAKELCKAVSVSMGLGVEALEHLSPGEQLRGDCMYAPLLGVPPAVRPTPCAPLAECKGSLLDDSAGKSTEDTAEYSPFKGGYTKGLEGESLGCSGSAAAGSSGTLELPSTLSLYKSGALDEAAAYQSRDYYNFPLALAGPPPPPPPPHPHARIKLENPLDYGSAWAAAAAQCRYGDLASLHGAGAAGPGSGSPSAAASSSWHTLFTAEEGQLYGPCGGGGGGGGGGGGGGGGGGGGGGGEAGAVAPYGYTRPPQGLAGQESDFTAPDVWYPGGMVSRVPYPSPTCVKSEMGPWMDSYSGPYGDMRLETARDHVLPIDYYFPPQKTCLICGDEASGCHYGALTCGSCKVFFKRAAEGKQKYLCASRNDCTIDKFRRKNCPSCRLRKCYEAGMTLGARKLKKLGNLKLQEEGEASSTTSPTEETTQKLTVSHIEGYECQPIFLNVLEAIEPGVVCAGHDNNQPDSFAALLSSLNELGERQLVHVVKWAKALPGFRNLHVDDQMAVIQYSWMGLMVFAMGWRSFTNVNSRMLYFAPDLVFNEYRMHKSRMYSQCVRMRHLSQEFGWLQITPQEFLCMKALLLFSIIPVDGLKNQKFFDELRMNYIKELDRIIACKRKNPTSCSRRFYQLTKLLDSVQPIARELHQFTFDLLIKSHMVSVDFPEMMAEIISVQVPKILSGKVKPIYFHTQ
Protocol: 100% is set to the activity with 200 μM testosterone, and 0% is set to the basal level (no ligand).
Cells were maintained in steroid free media, and stimulated with 200 μM testosterone, followed immediately by administration of exemplary compounds (Table 1, below). RLU is relative luciferase units, relative to DMSO control with 200 μM testosterone alone. Data represent an average of 3 independent experiments performed in triplicate wells per compounds at 10 μM.
Cells were maintained in steroid-free media, and stimulated with 200 μM testosterone, followed immediately by administration of a test compound. […] Compounds were dosed at 10 μM in FIGS. 6A and 6B.
Cells were maintained in steroid-free media, and stimulated with 200 μM testosterone, followed immediately by administration of a test compound.

LNCaP ARin vivo = test: IncuCyte % confluence cell growth inhibition, LNCaP ARin vivo; settings: Homo sapiens, read-out: IC50 values (μM), LNCaP ARin vivo
Protocol: (§1) Images were then analyzed to discern the % confluence of cells in each well. IC50 values were calculated from dose response curves of the % cell growth inhibition relative to DMSO control at the same time point per each cell line.

22Rv1 = test: IncuCyte % confluence cell growth inhibition, 22Rv1; settings: Homo sapiens
Protocol: as §1

PC3 = test: IncuCyte % confluence cell growth inhibition, PC3; settings: Homo sapiens
Protocol: as §1

LNCAP AR = test: IncuCyte % confluence cell growth inhibition, LNCAP AR; settings: read-out: IC50 values (μM), LNCAP AR
Protocol: as §1

LNCaP = test: IncuCyte % confluence cell growth inhibition, LNCaP; settings: Homo sapiens, read-out: IC50 values (μM), LNCaP
Protocol: as §1

DU145 = test: IncuCyte % confluence cell growth inhibition, DU145; settings: Homo sapiens
Protocol: as §1

LNCaP ARF876L = test: IncuCyte % confluence cell growth inhibition, LNCaP ARF876L; settings: Homo sapiens, AR-positive, AR mutation F876L, % cell growth inhibition relative to DMSO
Protocol: as §1

LAPC4 = test: IncuCyte % confluence cell growth inhibition, LAPC4; settings: Homo sapiens
Protocol: as §1

[1] = 22Rv1, read-out: IC50 values (μM), 22Rv1
[2] = PC-3, read-out: IC50 values (μM), PC3
[3] = DU-145, read-out: IC50 values (μM), DU145
[4] = LAPC4, read-out: IC50 values (μM), LAPC4
[5] = 22Rv1, AR-positive, AR mutation H874Y, % cell growth inhibition relative to DMSO, read-out: IC50 values (μM), 22Rv1
[6] = PC-3, AR-negative, % cell growth inhibition relative to DMSO, read-out: IC50 values (μM), PC3
[7] = AR-positive, AR w.t., % cell growth inhibition relative to DMSO
[8] = AR-positive, AR mutation T877A, % cell growth inhibition relative to DMSO
[9] = DU-145, AR-negative, % cell growth inhibition relative to DMSO, read-out: IC50 values (μM), DU145
[10] = LAPC4, AR-positive, AR w.t., % cell growth inhibition relative to DMSO, read-out: IC50 values (μM), LAPC4

SMILES: C#Cc1ccc(CN2C(=S)N(c3ccc(C#N)c(C(F)(F)F)c3)C(=O)C2(C)C)cc1 [Compound 10, 4-(3-(4-ethynylbenzyl)-4,4-dimethyl-5-oxo-2-thioxoimidazolidin-1-yl)-2-(trifluoromethyl)benzonitrile]
antagonist or inverse agonist activity on AR transcriptional activity (in words) (AR): relatively weak antagonists
activity at 10 µM (AR): 95%

SMILES: Cn1cc(-c2ccc(CN3C(=O)N(c4ccc(C#N)c(C(F)(F)F)c4)C(=O)C3(C)C)cc2)nn1 [Compound 14b, 4-(4,4-dimethyl-3-(4-(1-methyl-1H-1,2,3-triazol-4-yl)benzyl)-2,5-dioxoimidazolidin-1-yl)-2-(trifluoromethyl)benzonitrile]
activity at 10 µM (AR): -3%

SMILES: CC1(C)C(=O)N(c2ccc(C#N)c(C(F)(F)F)c2)C(=O)N1Cc1ccc(-c2c[nH]nn2)c(F)c1 [Compound 19b, 4-(3-(3-Fluoro-4-(1H-1,2,3-triazol-4-yl)benzyl)-4,4-dimethyl-2,5-dioxoimidazolidin-1-yl)-2-(trifluoromethyl)benzonitrile]
IC50 (LNCaP ARin vivo): 60.1 µM
IC50 (22Rv1; [1]): 40.6 µM
IC50 (PC3; [2]): 60.9 µM
IC50 (LNCAP AR): 35.1 µM
IC50 (LNCaP): 43.1 µM
IC50 (DU145; [3]): 65 µM
IC50 (LNCaP ARF876L): 49.4 µM
IC50 (LAPC4; [4]): 33.1 µM

SMILES: Cn1cc(-c2ccc(CN3C(=S)N(c4ccc(C#N)c(C(F)(F)F)c4)C(=O)C3(C)C)cc2)nn1 [Compound 15b, 4-(4,4-dimethyl-3-(4-(1-methyl-1H-1,2,3-triazol-4-yl)benzyl)-5-oxo-2-thioxoimidazolidin-1-yl)-2-(trifluoromethyl)benzonitrile]
activity at 10 µM (AR): -41%

SMILES: CC1(C)C(=O)N(c2ccc(C#N)c(C(F)(F)F)c2)C(=S)N1Cc1ccc(-c2c[nH]nn2)c(F)c1 [Compound 19c, 4-(3-(3-Fluoro-4-(1H-1,2,3-triazol-4-yl)benzyl)-4,4-dimethyl-5-oxo-2-thioxoimidazolidin-1-yl)-2-(trifluoromethyl)benzonitrile]
IC50 (LNCaP ARin vivo): 34 µM
IC50 (22Rv1; [1]): 25.3 µM
IC50 (PC3; [2]): 59.9 µM
IC50 (LNCAP AR): 28 µM
IC50 (LNCaP): 36.2 µM
IC50 (DU145; [3]): 114 µM
IC50 (LNCaP ARF876L): 33.9 µM
IC50 (LAPC4; [4]): 17.9 µM

IC50 (22Rv1; [5]): 26.8 µM
IC50 (PC3; [6]): 122 µM
IC50 (LNCAP AR; [7]): 25.8 µM
IC50 (LNCaP; [8]): 76.9 µM
IC50 (DU145; [9]): 61.2 µM
SMILES: CC(=O)N1CCN(CCOc2ccc(C3CCN(C4=Nn5c(nnc5C(F)(F)F)CC4)CC3)cc2)CC1 [AZD3514, reference compound]
IC50 (LAPC4; [10]): 30.5 µM

SMILES: CCn1cc(-c2ccc(CN3C(=S)N(c4ccc(C#N)c(C(F)(F)F)c4)C(=O)C3(C)C)cc2)nn1 [Compound 15c, 4-(3-(4-(1-ethyl-1H-1,2,3-triazol-4-yl)benzyl)-4,4-dimethyl-5-oxo-2-thioxoimidazolidin-1-yl)-2-(trifluoromethyl)benzonitrile]
activity at 10 µM (AR): 3%

SMILES: CCCCn1cc(-c2ccc(CN3C(=S)N(c4ccc(C#N)c(C(F)(F)F)c4)C(=O)C3(C)C)cc2)nn1 [Compound 15e, 4-(3-(4-(1-butyl-1H-1,2,3-triazol-4-yl)benzyl)-4,4-dimethyl-5-oxo-2-thioxoimidazolidin-1-yl)-2-(trifluoromethyl)benzonitrile]
activity at 10 µM (AR): -3%

SMILES: C#Cc1ccc(N2C(=S)N(c3ccc(C#N)c(C(F)(F)F)c3)C(=O)C2(C)C)cc1 [Compound 13, 4-(3-(4-ethynylphenyl)-4,4-dimethyl-5-oxo-2-thioxoimidazolidin-1-yl)-2-(trifluoromethyl)benzonitrile]
antagonist or inverse agonist activity on AR transcriptional activity (in words) (AR): relatively weak antagonists
activity at 10 µM (AR): 59%

IC50 (LNCaP ARin vivo; [7]): 270 µM
IC50 (22Rv1; [5]): 32.5 µM
IC50 (PC3; [6]): 300 µM
IC50 (LNCAP AR; [7]): 98.9 µM
IC50 (LNCaP; [8]): 34.5 µM
IC50 (DU145; [9]): 61.8 µM
SMILES: CNC(=O)c1ccc(N2C(=S)N(c3cnc(C#N)c(C(F)(F)F)c3)C(=O)C23CCC3)cc1F [ARN509, reference compound]
IC50 (LAPC4; [10]): 86 µM

SMILES: CC1(C)C(=O)N(c2ccc(C#N)c(C(F)(F)F)c2)C(=S)N1Cc1c[nH]nn1 [Compound 18a]
activity at 10 µM (AR): 412%

IC50 (22Rv1; [5]): 53.4 µM
IC50 (PC3; [6]): 239 µM
IC50 (LNCAP AR; [7]): 80.5 µM
SMILES: CC(O)(CS(=O)(=O)c1ccc(F)cc1)C(=O)Nc1ccc(C#N)c(C(F)(F)F)c1 (centres unmarked) [Bicalutamide, bicalutamide, reference compound]
IC50 (LAPC4; [10]): 67 µM

SMILES: CC1(C)C(=O)N(c2ccc(C#N)c(C(F)(F)F)c2)C(=O)N1Cc1ccc(-n2cc(CCO)nn2)cc1 [Compound 20c, 4-(3-(4-(4-(2-hydroxyethyl)-1H-1,2,3-triazol-1-yl)benzyl)-4,4-dimethyl-2,5-dioxoimidazolidin-1-yl)-2-(trifluoromethyl)benzonitrile]
activity at 10 µM (AR): -1%

SMILES: CCCn1cc(-c2ccc(CN3C(=S)N(c4ccc(C#N)c(C(F)(F)F)c4)C(=O)C3(C)C)cc2)nn1 [Compound 15d, 4-(4,4-dimethyl-5-oxo-3-(4-(1-propyl-1H-1,2,3-triazol-4-yl)benzyl)-2-thioxoimidazolidin-1-yl)-2-(trifluoromethyl)benzonitrile]
activity at 10 µM (AR): 4%

SMILES: CC1(C)C(=O)N(c2ccc(C#N)c(C(F)(F)F)c2)C(=O)N1Cc1ccc(-n2ccnn2)cc1 [Compound 20a, 4-(3-(4-(1H-1,2,3-triazol-1-yl)benzyl)-4,4-dimethyl-2,5-dioxoimidazolidin-1-yl)-2-(trifluoromethyl)benzonitrile]
activity at 10 µM (AR): 57%

SMILES: CC1(C)C(=O)N(c2ccc(C#N)c(C(F)(F)F)c2)C(=O)N1Cc1ccc(-c2c[nH]nn2)cc1F [Compound 19a, 4-(3-(2-Fluoro-4-(1H-1,2,3-triazol-4-yl)benzyl)-4,4-dimethyl-2,5-dioxoimidazolidin-1-yl)-2-(trifluoromethyl)benzonitrile]
IC50 (LNCaP ARin vivo): 35.8 µM
IC50 (22Rv1; [1]): 36.7 µM
IC50 (PC3; [2]): 63.4 µM
IC50 (LNCAP AR): 29.4 µM
IC50 (LNCaP): 39 µM
IC50 (DU145; [3]): 46.1 µM
IC50 (LNCaP ARF876L): 41.4 µM
IC50 (LAPC4; [4]): 30.7 µM

SMILES: CC1(C)C(=O)N(c2ccc(C#N)c(C(F)(F)F)c2)C(=O)N1Cc1ccc(-n2cc(CO)nn2)cc1 [Compound 20b, 4-(3-(4-(4-(hydroxymethyl)-1H-1,2,3-triazol-1-yl)benzyl)-4,4-dimethyl-2,5-dioxoimidazolidin-1-yl) 2-(trifluoromethyl)benzonitrile]
activity at 10 µM (AR): 73%

SMILES: C#Cc1ccc(CN2C(=O)N(c3ccc(C#N)c(C(F)(F)F)c3)C(=O)C2(C)C)cc1 [Compound 6, 4-[3-[(4-ethynylphenyl)methyl]-4,4-dimethyl-2,5-dioxo-1-imidazolidinyl]-2-(trifluoromethyl)-benzonitrile]
antagonist or inverse agonist activity on AR transcriptional activity (in words) (AR): relatively weak antagonists
activity at 10 µM (AR): 138%
